Experimental data as given in PubChem BioAssay (NCI).
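These data come from cells grown in 96-well plates and exposed to compound for 48 hours at five concentrations. TGI: concentration producing complete growth inhibition.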

Assays:
Assay in all cases: inhibition of tumour cell growth, NCI panel, 48 h
SN12C renal = test system: SN12C renal
HL-60(TB) leukemia = test system: HL-60(TB) leukemia
MALME-3M melanoma = test system: MALME-3M melanoma
NCI-H522 lung = test system: NCI-H522 lung
K-562 leukemia = test system: K-562 leukemia
IGROV1 ovarian = test system: IGROV1 ovarian
NCI-H460 lung = test system: NCI-H460 lung
SK-OV-3 ovarian = test system: SK-OV-3 ovarian
SW-620 colon = test system: SW-620 colon
SF-295 CNS = test system: SF-295 CNS

Measured: TGI

O=C1c2cccc3cccc(c23)C(=O)N1O
> 100 µM: all assays above

O=c1[nH]c2cc([N+](=O)[O-])ccc2nc1/C(=N\Nc1ccccc1)C(O)c1ccc2c(c1)OCO2 (stereo not given)
> 100 µM: all assays above

C=CCNC(=O)N(CCC)CCCC(NC(C)=O)C(=O)NCc1ccccc1 (stereo not given)
> 100 µM: all assays above
